Key:
Experiment in all cases: relative viability (nuclei count vs DMSO), 5 days (fraction); higher = more cells survive
[1] = compound: O=C(O)c1ccc2c(c1)nc(Nc1cccc(Cl)c1)c1ccncc12 [Silmitasertib] + Nc1nc2[nH]cc(CCc3ccc(C(=O)N[C@@H](CCC(=O)O)C(=O)O)cc3)c2c(=O)[nH]1 [Pemetrexed] (partner 0.2 µM)
Summary of the method: (§1)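 After 5 days of treatment, lung cancer cells in 1536-well plates were fixed and stained in a single step (final 0.05% Triton X-100, 1% formaldehyde, 1 ug/ml Hoechst) and their nuclei counted on 4× images. Treatment had been applied by pin tool the day after seeding as one drug alone or as a fixed anchor-drug dose with five library-drug doses (not always all listed) in √10 steps. Relative viability is the nuclei count of treated wells divided by that of vehicle wells, and values are medians of duplicate plates.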

[2] = compound: O=C(O)c1ccc2c(c1)nc(Nc1cccc(Cl)c1)c1ccncc12 [Silmitasertib] + NC(=O)Nc1cc(-c2cccc(F)c2)sc1C(=O)N[C@H]1CCCNC1 [AZD7762] (partner 0.2 µM)
Summary of the method: as §1

[3] = compound: O=C(O)c1ccc2c(c1)nc(Nc1cccc(Cl)c1)c1ccncc12 [Silmitasertib] + CC(=O)c1c(C)c2cnc(Nc3ccc(N4CCNCC4)cn3)nc2n(C2CCCC2)c1=O [Palbociclib] (partner 0.5 µM)
Summary of the method: as §1

[4] = compound: O=C(O)c1ccc2c(c1)nc(Nc1cccc(Cl)c1)c1ccncc12 [Silmitasertib] + Nc1ncn([C@H]2C[C@H](O)[C@@H](CO)O2)c(=O)n1 [Decitabine] (partner 2 µM)
Summary of the method: as §1

[5] = compound: O=C(O)c1ccc2c(c1)nc(Nc1cccc(Cl)c1)c1ccncc12 [Silmitasertib] + CC(=O)Nc1cccc(-n2c(=O)n(C3CC3)c(=O)c3c(Nc4ccc(I)cc4F)n(C)c(=O)c(C)c32)c1 [Trametinib] (partner 0.02 µM)
Summary of the method: as §1

[6] = compound: O=C(O)c1ccc2c(c1)nc(Nc1cccc(Cl)c1)c1ccncc12 [Silmitasertib] + O=C(CCCCCCC(=O)Nc1ccccc1)NO [Vorinostat] (partner 1 µM)
Summary of the method: as §1

[7] = compound: O=C(O)c1ccc2c(c1)nc(Nc1cccc(Cl)c1)c1ccncc12 [Silmitasertib] + COc1cccc2cc(-c3nc([C@H]4CC[C@H](C(=O)O)CC4)n4ncnc(N)c34)[nH]c12 [OSI-027] (partner 0.5 µM)
Summary of the method: as §1

[8] = compound: O=C(O)c1ccc2c(c1)nc(Nc1cccc(Cl)c1)c1ccncc12 [Silmitasertib] + Cc1cc(Nc2cc(N3CCN(C)CC3)nc(Sc3ccc(NC(=O)C4CC4)cc3)n2)n[nH]1 [Tozasertib] (partner 0.1 µM)
Summary of the method: as §1

[9] = compound: O=C(O)c1ccc2c(c1)nc(Nc1cccc(Cl)c1)c1ccncc12 [Silmitasertib] + O=C(c1cc(Cc2n[nH]c(=O)c3ccccc23)ccc1F)N1CCN(C(=O)C2CC2)CC1 [Olaparib] (partner 8 µM)
Summary of the method: as §1

[10] = compound: O=C(O)c1ccc2c(c1)nc(Nc1cccc(Cl)c1)c1ccncc12 [Silmitasertib]
Summary of the method: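 Five library-drug doses spaced by √10 were pinned onto vehicle-anchored 1536-well plates of lung cancer cell lines that had been kept overnight at 37 °C. Cells went 5 days without medium change, then were fixed, permeabilised and Hoechst-stained together, imaged at 4× and counted by MetaXpress. Viability is the ratio of treated-well to vehicle-well nuclei, taken as a median over plates. Plates required control CV below 25% and at least one doubling.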

[11] = compound: O=C(O)c1ccc2c(c1)nc(Nc1cccc(Cl)c1)c1ccncc12 [Silmitasertib] + Cc1nc(Nc2ncc(C(=O)Nc3c(C)cccc3Cl)s2)cc(N2CCN(CCO)CC2)n1 [Dasatinib] (partner 0.075 µM)
Summary of the method: as §1

[12] = compound: O=C(O)c1ccc2c(c1)nc(Nc1cccc(Cl)c1)c1ccncc12 [Silmitasertib] + CCNC(=O)c1noc(-c2cc(C(C)C)c(O)cc2O)c1-c1ccc(CN2CCOCC2)cc1 [Luminespib] (partner 0.01 µM)
Summary of the method: as §1

[13] = compound: O=C(O)c1ccc2c(c1)nc(Nc1cccc(Cl)c1)c1ccncc12 [Silmitasertib] + COc1cc2c(Oc3ccc(NC(=O)C4(C(=O)Nc5ccc(F)cc5)CC4)cc3F)ccnc2cc1OCCCN1CCOCC1 [Foretinib] (partner 0.25 µM)
Summary of the method: as §1

[14] = compound: O=C(O)c1ccc2c(c1)nc(Nc1cccc(Cl)c1)c1ccncc12 [Silmitasertib] + N=C(N)NC(=N)NCCc1ccccc1 [Phenformin] (partner 250 µM)
Summary of the method: as §1

NCI-H1648
relative viability ([1]; first compound 0.04 µM): 0.689 | relative viability ([1]; first compound 0.4 µM): 0.699 | relative viability ([1]; first compound 1.265 µM): 0.863 | relative viability ([1]; first compound 4 µM): 0.679 | relative viability ([2]; first compound 0.04 µM): 0.709 | relative viability ([2]; first compound 0.4 µM): 0.624 | relative viability ([2]; first compound 1.265 µM): 0.739 | relative viability ([2]; first compound 4 µM): 0.423 | relative viability ([3]; first compound 0.04 µM): 0.256 | relative viability ([3]; first compound 0.4 µM): 0.229 | relative viability ([3]; first compound 1.265 µM): 0.301 | relative viability ([3]; first compound 4 µM): 0.327 | relative viability ([4]; first compound 0.04 µM): 0.49 | relative viability ([4]; first compound 0.4 µM): 0.55 | relative viability ([4]; first compound 1.265 µM): 0.494 | relative viability ([4]; first compound 4 µM): 0.559 | relative viability ([5]; first compound 0.04 µM): 0.634 | relative viability ([5]; first compound 0.4 µM): 0.366 | relative viability ([5]; first compound 1.265 µM): 0.474 | relative viability ([5]; first compound 4 µM): 0.527 | relative viability ([6]; first compound 0.04 µM): 0.435 | relative viability ([6]; first compound 0.4 µM): 0.517 | relative viability ([6]; first compound 1.265 µM): 0.271 | relative viability ([6]; first compound 4 µM): 0.574 | relative viability ([7]; first compound 0.04 µM): 0.255 | relative viability ([7]; first compound 1.265 µM): 0.267 | relative viability ([7]; first compound 4 µM): 0.245 | relative viability ([8]; first compound 0.04 µM): 0.61 | relative viability ([8]; first compound 1.265 µM): 0.283 | relative viability ([8]; first compound 4 µM): 0.363 | relative viability ([9]; first compound 0.04 µM): 0.84 | relative viability ([9]; first compound 0.4 µM): 0.525 | relative viability ([9]; first compound 1.265 µM): 1.07 | relative viability ([9]; first compound 4 µM): 0.876 | relative viability ([10]; 0.04 µM): 1.26 | relative viability ([10]; 0.4 µM): 0.63 | relative viability ([10]; 1.265 µM): 0.889 | relative viability ([10]; 4 µM): 0.684

NCI-H2342
relative viability ([11]; first compound 0.04 µM): 0.33 | relative viability ([11]; first compound 0.4 µM): 0.295 | relative viability ([11]; first compound 1.265 µM): 0.271 | relative viability ([11]; first compound 4 µM): 0.298 | relative viability ([1]; first compound 0.04 µM): 0.77 | relative viability ([1]; first compound 1.265 µM): 0.72 | relative viability ([1]; first compound 4 µM): 0.681 | relative viability ([2]; first compound 0.04 µM): 0.471 | relative viability ([2]; first compound 1.265 µM): 0.387 | relative viability ([2]; first compound 4 µM): 0.401 | relative viability ([3]; first compound 0.04 µM): 0.522 | relative viability ([3]; first compound 1.265 µM): 0.494 | relative viability ([3]; first compound 4 µM): 0.495 | relative viability ([12]; first compound 0.04 µM): 0.708 | relative viability ([12]; first compound 0.4 µM): 0.729 | relative viability ([12]; first compound 1.265 µM): 0.715 | relative viability ([12]; first compound 4 µM): 0.778 | relative viability ([4]; first compound 0.04 µM): 0.791 | relative viability ([4]; first compound 1.265 µM): 0.79 | relative viability ([4]; first compound 4 µM): 0.743 | relative viability ([5]; first compound 0.04 µM): 0.909 | relative viability ([5]; first compound 1.265 µM): 0.781 | relative viability ([5]; first compound 4 µM): 0.811 | relative viability ([13]; first compound 0.04 µM): 1.19 | relative viability ([13]; first compound 0.4 µM): 0.981 | relative viability ([13]; first compound 1.265 µM): 0.889 | relative viability ([13]; first compound 4 µM): 1.14 | relative viability ([14]; first compound 0.04 µM): 0.614 | relative viability ([14]; first compound 0.4 µM): 0.713 | relative viability ([14]; first compound 1.265 µM): 0.465 | relative viability ([14]; first compound 4 µM): 0.493 | relative viability ([6]; first compound 0.04 µM): 0.782 | relative viability ([6]; first compound 1.265 µM): 0.746 | relative viability ([6]; first compound 4 µM): 0.727 | relative viability ([7]; first compound 0.04 µM): 0.762 | relative viability ([7]; first compound 0.4 µM): 0.606 | relative viability ([7]; first compound 1.265 µM): 0.504 | relative viability ([7]; first compound 4 µM): 0.539 | relative viability ([8]; first compound 0.04 µM): 0.479 | relative viability ([8]; first compound 0.4 µM): 0.479 | relative viability ([8]; first compound 1.265 µM): 0.374 | relative viability ([8]; first compound 4 µM): 0.445 | relative viability ([9]; first compound 0.04 µM): 0.422 | relative viability ([9]; first compound 1.265 µM): 0.434 | relative viability ([9]; first compound 4 µM): 0.426 | relative viability ([10]; 0.04 µM): 1.1 | relative viability ([10]; 0.4 µM): 0.839 | relative viability ([10]; 1.265 µM): 0.998 | relative viability ([10]; 4 µM): 0.839

— the supplement of paper PMC10307832
